Test results from article PMC4886168, “Effects of solid‐phase extraction of plasma in measuring gut metabolic hormones in fasted and fed blood of lean and diet‐induced obese rats” (Physiological Reports, 2016).
Values joined by “and” are separate entries in the source; they are usually repeats but may differ in a detail not shown here. Equal entries are not always repeated.

Columns and labels:
[1] = Plasma peptide levels during IV infusion of anorexigenic doses in lean rats
Experimental: Leptin doses bracketed the minimal effective dose (1100 ng/kg/min) for reducing food intake in lean rats (Reidelberger et al. 2012). Approximately 45 min after infusion onset, and while the infusion continued, rats were anesthetized with isoflurane (3%), and blood samples (~3 mL) were obtained by cardiac puncture. Samples were immediately transferred to 4 mL EDTA tubes on ice containing 40 μL of a mixture of 0.9 mL DPP4 inhibitor, 0.1 mL Protease Inhibitor Cocktail, and 0.1 g AEBSF. Plasma was obtained by centrifugation within 30 min of sample collection and stored at −70°C until solid‐phase extraction of samples followed by the multiplex assay. Infusions were administered using a syringe infusion pump (Harvard Apparatus, South Natick, MA). At the end of the experiment, data from a rat were excluded if its jugular vein catheter was not patent. A catheter was deemed patent if the rat lost consciousness within 10 sec of a bolus injection of the short‐acting anesthetic brevital into the catheter.
Plasma samples were extracted using procedures similar to those described previously (Dai et al. 2008). Briefly, an OASIS HLB LP (60 mg) 96‐well extraction plate (Waters Corp., Milford, MA) was prepared by passing 1 mL acetonitrile twice through each well, followed by 3, 1 mL washes of 1% trifluoroacetic acid (TFA; 1:100 water [vol/vol]). Flows through the wells were facilitated using a Waters vacuum manifold (5 inch Hg). Plasma (1 mL) was then added to each well; 10 min later, flows were facilitated using vacuum. Wells were then washed three times with 1 mL 1% TFA (facilitated using vacuum). Extracts were eluted into individual tubes by adding 1 mL of 1% TFA, 60% acetonitrile in water (vol/vol) to each well; 10 min later, flows were facilitated using vacuum. Samples of each extract (0.9 mL) were frozen, and then lyophilized to dryness. At time of assay, dried extracts for each sample were dissolved with 0.45 mL of assay buffer, producing a twofold higher concentration for eluted plasma components.
The multiplex assay employed a BioTek ELx405 plate washer fitted with a magnetic holder, and a Luminex 200 analyzer. […] Initial assays compared peptide standards used in the multiplex assay with those used in the individual ELIAs: multiplex assay standards were included in the individual ELIAs, and standards from the ELIAs were included in the multiplex assay.
In experiments examining the effects of solid‐phase extraction of plasma samples on specific recoveries of the seven peptides added to lean and obese plasma, measured peptide concentrations in each plasma sample were plotted against expected concentrations (after subtracting plasma alone values), and linear regression analyses were performed. […] Planned comparisons of treatment means were evaluated by t‐tests or paired t‐tests. […]

food intake in lean rats = details: cited from earlier work; for ED50 dose for reducing food intake: 3-h IV infusion, ref Reidelberger et al. 2001, Chelikani et al. 2005a,b
[2] = rats, amylin 15 ng/kg/min IV; solid-phase extraction of plasma, amylin radioimmunoassay; ref Arnelo et al. 1998; cited from earlier work
From the text: With respect to the pancreatic hormone amylin, we previously provided evidence that postprandial plasma levels of amylin are not quite sufficient to inhibit food intake in rats by an endocrine mechanism (Arnelo et al. 1998). […] Here, we provide evidence using solid‐phase extraction of plasma and the multiplex assay for active amylin that a large chow meal in ...

## CC[C@H](C)[C@H](NC(=O)[C@H](Cc1ccccc1)NC(=O)[C@H](CCC(=O)O)NC(=O)[C@H](CCCCN)NC(=O)[C@H](C)NC(=O)[C@H](C)NC(=O)[C@H](CCC(N)=O)NC(=O)CNC(=O)[C@H](CCC(=O)O)NC(=O)[C@H](CC(C)C)NC(=O)[C@H](Cc1ccc(O)cc1)NC(=O)[C@H](CO)NC(=O)[C@H](CO)NC(=O)[C@@H](NC(=O)[C@H](CC(=O)O)NC(=O)[C@H](CO)NC(=O)[C@@H](NC(=O)[C@H](Cc1ccccc1)NC(=O)[C@@H](NC(=O)CNC(=O)[C@H](CCC(=O)O)NC(=O)[C@H](C)NC(=O)[C@@H](N)Cc1c[nH]cn1)[C@@H](C)O)[C@@H](C)O)C(C)C)C(=O)N[C@@H](C)C(=O)N[C@@H](Cc1c[nH]c2ccccc12)C(=O)N[C@@H](CC(C)C)C(=O)N[C@H](C(=O)N[C@@H](CCCCN)C(=O)NCC(=O)N[C@@H](CCCNC(=N)N)C(N)=O)C(C)C [GLP‐1, Glucagon‐like peptide‐1]
[1]; lean rats, 45 min IV infusion, three dose levels incl. 0, extracted plasma, multiplex assay, multiplex standards as reference
  best-fit linear regression equation, Y plasma peptide concentration (pg/mL), X peptide dose (ng/kg/min): 37 + 75X pg/mL
[1]; lean rats, IV ~ED50 doses (56, 68, 39 ng/kg/min) vs postprandial level 30 min after meal onset, ELIA standards as reference
  plasma level at ~ED50 dose relative to that produced by the large meal: 30–60 fold and 30 fold
[1]; regression prediction for GLP-1 1.6 ng/kg/min IV, dose not administered here, [95% CI]
  predicted plasma active GLP-1 level at minimal anorexigenic dose: 53 [−400, 510] pg/mL
Food intake in lean rats; lean rats
  ED50 dose for reducing food intake: 76 ng/kg/min
Food intake in lean rats; rats, IV infusion of GLP-1 at 33 ng/kg/min, ref Chelikani et al. 2005b
  effect on food intake: sufficient to decrease food intake

## CC(C)C[C@H](NC(=O)[C@H](CC(N)=O)NC(=O)[C@H](CC(N)=O)NC(=O)[C@H](CO)NC(=O)[C@H](CO)NC(=O)[C@H](CCCNC(=N)N)NC(=O)[C@@H](NC(=O)[C@H](CC(C)C)NC(=O)[C@H](Cc1ccccc1)NC(=O)[C@H](CC(N)=O)NC(=O)[C@H](C)NC(=O)[C@H](CC(C)C)NC(=O)[C@H](CCCNC(=N)N)NC(=O)[C@H](CCC(N)=O)NC(=O)[C@@H](NC(=O)[C@H](C)NC(=O)[C@@H]1CSSC[C@H](NC(=O)[C@@H](N)CCCCN)C(=O)N[C@@H](CC(N)=O)C(=O)N[C@@H]([C@@H](C)O)C(=O)N[C@@H](C)C(=O)N[C@@H]([C@@H](C)O)C(=O)N1)[C@@H](C)O)C(C)C)C(=O)NCC(=O)N1CCC[C@H]1C(=O)N[C@H](C(=O)N[C@@H](CC(C)C)C(=O)N1CCC[C@H]1C(=O)N1CCC[C@H]1C(=O)N[C@H](C(=O)N[C@@H](CC(N)=O)C(=O)N[C@H](C(=O)NCC(=O)N[C@@H](CO)C(=O)N[C@@H](CC(N)=O)C(=O)N[C@H](C(=O)N[C@@H](Cc1ccc(O)cc1)C(N)=O)[C@@H](C)O)C(C)C)[C@@H](C)O)C(C)C [Amylin]
[1]; rat, in vivo, iv
  predicted plasma active amylin level at minimal anorexigenic dose: 450 [−460, 1360] pg/mL
[2]
  plasma amylin produced by anorexigenic IV dose: 140 pg/mL
Food intake in lean rats; lean rats
  ED50 dose for reducing food intake: 31 ng/kg/min

B1: Leptin (protein, UniProt P41160 22-167, looked up)
Leptin: VPIQKVQDDTKTLIKTIVTRINDISHTQSVSAKQRVTGLDFIPGLHPILSLSKMDQTLAVYQQVLTSLPSQNVLQIANDLENLRDLLHLLAFSKSCSLPQTSGLQKPESLDGVLEASLYSTEVVALSRLQGSLQDILQQLDVSPEC
Food intake in lean rats; lean rats, IV infusion of leptin, ref Reidelberger et al. 2012
  minimal effective dose for reducing food intake: 1100 ng/kg/min
